These results are taken from PMC5120670 (European journal of medicinal chemistry, 2016).

Data set [1] concerns T. brucei (bloodstream form strain 427). Nature of the data set: T. brucei growth inhibition assay. It counts as cell-based, Trypanosoma brucei. To be noted: for cellular activity improvement compared to 3: relative to compound 3.
Data set [2] concerns the target T1, T. brucei methionyl-tRNA synthetase (TbMetRS) (Trypanosoma brucei brucei, UniProt Q38C91).
T1 sequence (Q38C91 1-773): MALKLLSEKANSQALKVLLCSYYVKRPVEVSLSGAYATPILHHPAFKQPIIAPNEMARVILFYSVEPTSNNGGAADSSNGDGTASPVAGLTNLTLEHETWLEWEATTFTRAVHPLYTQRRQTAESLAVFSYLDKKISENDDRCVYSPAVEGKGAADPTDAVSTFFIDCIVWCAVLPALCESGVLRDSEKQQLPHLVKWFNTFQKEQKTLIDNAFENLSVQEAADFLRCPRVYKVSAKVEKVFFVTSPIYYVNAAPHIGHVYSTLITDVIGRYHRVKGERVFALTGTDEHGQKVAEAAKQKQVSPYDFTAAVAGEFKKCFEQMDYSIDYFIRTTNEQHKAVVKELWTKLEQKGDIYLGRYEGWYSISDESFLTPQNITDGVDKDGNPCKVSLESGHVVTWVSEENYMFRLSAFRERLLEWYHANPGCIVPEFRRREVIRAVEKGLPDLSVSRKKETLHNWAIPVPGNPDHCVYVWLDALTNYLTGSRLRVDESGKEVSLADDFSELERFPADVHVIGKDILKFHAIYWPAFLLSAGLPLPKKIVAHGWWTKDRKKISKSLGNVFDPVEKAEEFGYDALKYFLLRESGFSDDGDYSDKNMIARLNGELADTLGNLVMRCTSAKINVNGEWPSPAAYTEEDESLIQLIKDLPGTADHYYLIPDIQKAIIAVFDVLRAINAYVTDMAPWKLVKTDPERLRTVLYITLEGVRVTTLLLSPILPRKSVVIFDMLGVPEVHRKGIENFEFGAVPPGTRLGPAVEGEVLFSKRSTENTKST
Nature of the data set: Enzyme inhibition assay. It counts as biochemical.

The nature of data set [3]: Distribution of compounds between mouse plasma and brain. Type of data set: in vivo. Particulars: mice, 5 mg/kg IP, 60 min after injection.
A short description of data set [4]: PK studies in mice. It counts as in vivo. To be noted: for AUC: mice, oral administration at 50 mg/kg.
Data set [5] has as its system human lymphoblast cell line (CRL-8155). Nature of the data set: Mammalian cell growth inhibition assay, CRL-8155.
Data set [6] concerns hepatocellular carcinoma cell line (Hep G2). Briefly: Mammalian cell growth inhibition assay, Hep G2. Type of data set: cell-based. Particulars: Homo sapiens, HepG2, 48 h, read-out: Hep G2 EC50.

With `O=C(Cc1cc(Cl)cc(Cl)c1)N1CCCC(c2nc3cc(Cl)ccc3[nH]2)C1` (stereo not drawn) [Compound 6, 1-(3-(5-chloro-1H-benzo[d]imidazol-2-yl)piperidin-1-yl)-2-(3,5-dichlorophenyl) ethanone], the “cellular activity improvement compared to 3” value in data set [1] was “approximately 5 fold”.

For `O=C(Cc1cc(Cl)cc(Cl)c1)N1CCCC(c2nc3nc(Cl)ccc3[nH]2)C1` (stereo not drawn) [Compound 7, 1-(3-(5-chloro-1H-imidazo[4,5-b]pyridin-2-yl)piperidin-1-yl)-2-(3,5-dichlorophenyl)ethanone], the IC50 (in general, the concentration at which inhibition is half-maximal) in data set [2] was less than 50 nM. In addition, in data set [1], the “cellular activity improvement compared to 3” value was “approximately 5 fold”.

Turning to `Clc1cc(Cl)cc(CCN2CCCC(c3nc4nc(Cl)ccc4[nH]3)C2)c1` (stereo not drawn) [Compound 10, 5-chloro-2-(1-(3,5-dichlorophenethyl)piperidin-3-yl)-1H-imidazo[4,5-b]pyridine], the “decreased potency compared to 6” value in data set [1] (relative to compound 6) was “around 3 fold”.

For the compound `Clc1cc(Cl)cc(CNC2CCCC(c3nc4nc(Cl)ccc4[nH]3)C2)c1` (stereo not drawn) [Compound 12, 3-(5-chloro-1H-imidazo[4,5-b]pyridin-2-yl)-N-(3,5-dichlorobenzyl) cyclohexanamine], the “lower EC50 compared to 6” value in data set [1] (relative to compound 6) stood at 4 fold.

In data set [2], `Clc1cc(Cl)cc(CNC2CCCN(c3nc4nc(Cl)ccc4[nH]3)C2)c1` (stereo not drawn) [Compound 14, 1-(5-chloro-1H-imidazo[4,5-b]pyridin-2-yl)-N-(3,5-dichlorobenzyl)piperidin-3-amine] had a 50% inhibitory concentration (IC50) of less than 50 nM. In data set [1] (relative to compound 12), the “lower EC50 compared to compound 12” value was ~ 4 fold.

In data set [2], `Clc1cc(Cl)cc(CN[C@H]2CCCN(c3nc4nc(Cl)ccc4[nH]3)C2)c1` [Compound 16, (S)-1-(5-chloro-1H-imidazo[4,5-b]pyridin-2-yl)-N-(3,5-dichlorobenzyl) piperidin-3-amine] gave an IC50 of less than 50 nM. Besides, the brain levels entry in data set [3] was “nearly undetectable”. The compound further displayed an AUC in data set [4] of 6223 min*µ mol/L. The “lower EC50 compared to R-isomer 15” value in data set [1] (relative to compound 15) is given as greater than 25 fold.

For `Clc1cc(Cl)cc(CN[C@H]2CCN(c3nc4ccc(Cl)nc4[nH]3)C2)c1` [Compound 24, (S)-1-(5-chloro-3H-imidazo[4,5-b]pyridin-2-yl)-N-(3,5-dichlorobenzyl) pyrrolidin-3-amine], in data set [2], the IC50 was less than 50 nM. Further, the “more potent than the R-isomer 23” value in data set [1] (relative to compound 23) is listed as ~ 6 fold.

For `CN(CCNCc1cc(Cl)cc(Cl)c1)c1nc2nc(Cl)ccc2[nH]1` [Compound 31, N1-(5-chloro-1H-imidazo[4,5-b]pyridin-2-yl)-N2-(3,5-dichlorobenzyl)-N1-methylethane-1,2-diamine], the EC50 (as a rule, the concentration needed to bring the measured effect to its halfway point) in data set [5] (Homo sapiens, CRL8155, 48 h, read-out: CRL-8155 EC50) came to 22600 nM; in data set [6] it was 39200 nM; in data set [1] (Trypanosoma brucei, 48 h) it was 22 nM. In data set [5] (mammalian cells versus T. brucei), this compound showed a selectivity index of 1027. For the same compound, the IC50 in data set [2] was less than 50 nM. Moreover, in data set [4], the AUC came out at 952 min*µ mol/L. Moreover, in data set [4] (mouse, whole blood, po, 50 mg/kg), the Cmax (as a rule, the peak of the concentration-time curve) was 9.7 µM. Further, the “lower EC50 compared to compound 29” value in data set [1] (relative to compound 29) is recorded as ~ 3 fold.
